Data set [1] deals with Philadelphia positive acute lymphoblastic leukemia (Ph+ ALL) cells. Briefly: Colony growth of Philadelphia positive ALL cells in methylcellulose culture. The format is cell-based, human. The procedure:
Ph+ ALL cells were plated in 1 ml volumes, in the absence of exogenous growth factors, into 35 mm petri dishes (Nunc, Gibco) containing alpha MEM (Gibco) plus 10% FCS (Cansera Rexdale, ON.) in 0.9% (vol/vol) methylcellulose (Fluka, Switzerland) with the indicated concentrations of CR4. Cultures were set at 37° C., 5% CO2 in a humidified atmosphere. Colonies consisting of more than 20 cells were counted at 12 days or earlier using an inverted microscope.
ALL cells were plated in 1 ml volumes, in the absence of exogenous growth factors, into 35 mm petri dishes (Nunc, Gibco) containing alpha MEM (Gibco) plus 20% FCS (Cansera Rexdale, ON.) in 0.9% (vol/vol) methylcellulose (Fluka, Switzerland) and the indicated concentrations of compound Cultures were set at 37° C., 5% CO2 in a humidified atmosphere Colonies consisting of more than 20 cells were counted at 12 days or earlier using an inverted microscope.
ALL cells were plated in 1 ml volumes, in the absence of exogenous growth factors, into 35 mm petri dishes (Nunc, Gibco) containing alpha MEM (Gibco) plus 20% FCS (Cansera Rexdale, ON) in 0.90% (vol/vol) methylcellulose (Fluka, Switzerland) and the indicated concentrations of compound. Cultures were set at 37° C., 5% CO2 in a humidified atmosphere. Colonies consisting of more than 20 cells were counted at 12 days or earlier using an inverted microscope.
ALL cells were plated in 1 ml volumes, in the absence of exogenous growth factors, into 35 mm petri dishes (Nunc, Gibco) containing alpha MEM (Gibco) plus 20% FCS (Cansera Rexdale, ON.) in 0.9% (vol/vol) methylcellulose (Fluka, Switzerland) and the indicated concentrations of CR24. Cultures were set at 37° C., 5% CO2 in a humidified atmosphere. Colonies consisting of more than 20 cells were counted at 9 days or earlier using an inverted microscope.
ALL cells were plated in 1 ml volumes, in the absence of exogenous growth factors, into 35 mm petri dishes (Nunc, Gibco) containing alpha MEM (Gibco) plus 20% FCS (Cansera Rexdale, ON.) in 0.9% (vol/vol) methylcellulose (Fluka, Switzerland) and the indicated concentrations of CR19. Cultures were set at 37° C., 5% CO2 in a humidified atmosphere. Colonies consisting of more than 20 cells were counted at 9 days or earlier using an inverted microscope.

In the next data set the test system is OCl-LY2 lymphoma cells. Briefly: Colony growth of OCl-LY2 lymphoma cells in methylcellulose culture. The format is cell-based. Particulars: colonies at 5 days (FIG. 7). The procedure:
OCl-LY2 cells were plated in 1 ml volumes, in the absence of exogenous growth factors, into 35 mm petri dishes (Nunc, Gibco) containing IMDM (OCl, Toronto) plus 20% human cord blood plasma in 0.9% (vol/vol) methylcellulose (Fluka, Switzerland) and the indicated doses of CR4. Cultures were set at 37° C., 5% CO2 in a humidified atmosphere. Colonies consisting of more than 20 cells were counted at 5 days or earlier using an inverted microscope.

Data set [2] relates to HuNS1 multiple myeloma cells. Nature of the data set: Colony growth of HuNS1 multiple myeloma cells in methylcellulose culture. The format is cell-based. As for the experimental part: HuNS1 cells were plated in 35 mm petri dishes (Nunc, Gibco) in 1 ml volumes at a density of 1×10^4 cells/ml, in the absence of exogenous growth factors, containing alpha MEM plus 20% FCS (Cansera, Rexdale Ont.), and 0.9% (vol/vol) methylcellulose (Fluka, Switzerland) and the indicated concentrations of CR4. Cell cultures were incubated in a humidified atmosphere at 37° C. with 5% CO2. Colonies containing more than 20 cells were scored, using an inverted microscope, at […].

Data set [3] deals with Z119 acute lymphoblastic leukemia cells. Nature of the data set: In vitro purging of Z119 acute lymphoblastic leukemia. The class given is cell-based, human. As for the experimental part: (§1) For the purging assay, the cells were resuspended in complete medium with or without CR4 as indicated and incubated at 37° C., 5% CO2 for 0-5 hours. Cells were then washed thoroughly with medium to remove the CR4, resuspended and plated in 1 ml volumes, in the absence of exogenous growth factors, into 35 mm petri dishes (Nunc, Gibco) containing alpha MEM (Gibco) plus 20% FCS (Cansera Rexdale, ON.) in 0.9% (vol/vol) methylcellulose (Fluka, Switzerland). Cultures were set at 37° C., 5% CO2 in a humidified atmosphere. Colonies consisting of more than 20 cells were counted at 9 days or earlier using an inverted microscope.

In a further data set the test system is OCl-AML-3 cells. Briefly: In vitro purging of OCl-AML-3 acute myeloid leukemia cells. The format is cell-based. Particulars: 2.5-5 hours exposure (FIG. 17). The procedure: as §1, with “remove” for “remove the”, “ml volumes at 5×10^3 cells/ml,” for “ml volumes,”, “plus 10%” for “plus 20%”, “at 5” for “at 9”
A further data set deals with T1, Jak2 (Homo sapiens, UniProt O60674).
T1 construct: The cells were lysed in lysis buffer and immunoprecipitated with Jak2 antibody; endogenous in cells; host or cells: Z119 Ph+ ALL cell line (immunoprecipitate after 5 h preincubation of cells with CR4)
Briefly: Jak2 immunoprecipitate kinase assay after preincubation of Z119 cells. The format is cell-based. Particulars: Z119 cells preincubated for 5 hours (FIG. 24). The procedure: Philadelphia (Ph+) ALL Line Z119 (5×10^6 Cells/point) was Preincubated for 5 Hours with Different Concentrations of CR4 and Immunoprecipitated with Jak2 Antibody
The cells were lysed in lysis buffer and immunoprecipitated with Jak2 antibody. The precipitates were washed twice with lysis buffer and once with kinase assay buffer, followed by addition of 10 μCi ^33PγATP. The reaction was stopped after 20 min by the addition of SDS-PAGE reducing sample buffer and separated on an 8-16% SDS-PAGE gel. The products were transferred onto nitrocellulose membrane and visualized by autoradiography.

Data set [4] in a line: Retention in blood after I.V. injection. The format is in vivo. The following applies: 30 minutes after I.V. injection.

Where only a bound is given, the exact number is not on record here.

T1 sequence (O60674 whole entry): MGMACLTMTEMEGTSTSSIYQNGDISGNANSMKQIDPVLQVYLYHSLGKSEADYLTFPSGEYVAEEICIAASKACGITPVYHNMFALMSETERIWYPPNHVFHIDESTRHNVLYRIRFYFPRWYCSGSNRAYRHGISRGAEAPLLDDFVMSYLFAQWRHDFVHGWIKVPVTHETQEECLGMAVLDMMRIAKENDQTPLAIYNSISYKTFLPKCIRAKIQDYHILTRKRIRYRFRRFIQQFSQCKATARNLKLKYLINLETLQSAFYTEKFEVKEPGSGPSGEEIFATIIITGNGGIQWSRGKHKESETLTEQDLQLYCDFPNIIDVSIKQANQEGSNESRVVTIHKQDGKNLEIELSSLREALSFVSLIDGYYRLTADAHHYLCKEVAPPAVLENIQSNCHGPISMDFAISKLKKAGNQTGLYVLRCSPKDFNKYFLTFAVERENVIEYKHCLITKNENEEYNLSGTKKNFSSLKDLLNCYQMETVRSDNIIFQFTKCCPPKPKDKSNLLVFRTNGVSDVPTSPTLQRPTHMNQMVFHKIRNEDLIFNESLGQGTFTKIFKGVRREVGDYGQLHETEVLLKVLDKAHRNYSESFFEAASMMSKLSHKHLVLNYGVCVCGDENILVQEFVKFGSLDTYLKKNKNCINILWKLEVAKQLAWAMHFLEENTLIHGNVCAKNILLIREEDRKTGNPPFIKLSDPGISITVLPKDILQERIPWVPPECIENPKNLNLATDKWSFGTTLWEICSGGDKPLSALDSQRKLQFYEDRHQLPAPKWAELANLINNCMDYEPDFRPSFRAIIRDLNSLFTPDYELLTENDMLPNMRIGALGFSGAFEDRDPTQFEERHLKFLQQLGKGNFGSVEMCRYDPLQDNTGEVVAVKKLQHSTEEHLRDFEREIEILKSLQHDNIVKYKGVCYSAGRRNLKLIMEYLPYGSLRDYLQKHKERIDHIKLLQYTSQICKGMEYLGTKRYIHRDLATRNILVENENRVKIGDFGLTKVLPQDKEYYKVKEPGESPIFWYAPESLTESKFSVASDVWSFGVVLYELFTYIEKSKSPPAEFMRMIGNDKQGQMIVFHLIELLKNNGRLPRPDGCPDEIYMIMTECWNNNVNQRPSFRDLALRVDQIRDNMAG

Consider `N#C/C(=C\C=C\c1ccc(O)c(O)c1)C(=O)NCc1ccccc1` [CR4, (E,E)-2-(benzylaminocarbonyl)-3-(3,4-dihydroxystyryl)acrylonitrile], for which, in data set [1] (concentrations as low as 40 nM), the “wipeout of bcr-abl transformed Philadelphia positive cells” value is reported as over 90%. In data set [1] (low nanomolar doses (35-100), colonies at 12 days (FIG. 2)), the “inhibition of Ph+ ALL cell proliferation and survival” value is listed as “significant inhibition”. Besides, the inhibition at 2.5 µM in the data set on OCl-LY2 lymphoma cells (120 h, 2.5 μM, read-out: inhibition of cell proliferation and survival) was 90%; in data set [2] (HuNS1, 2.5 μM (FIG. 19), read-out: inhibition of cell proliferation and survival), over 90%. Moreover, the “inhibition of cell proliferation and survival” value (in the data set with OCl-LY2 lymphoma cells (high nanomolar to low micromolar doses); in data set [2] (high nanomolar to low micromolar doses (FIG. 19))) was “significantly inhibited” each time. For the same compound, the “killing of Z119 cells” value is recorded as 85% in data set [3] (25 μM, 2.5 hours exposure (FIG. 15)); “rapid killing” in data set [3] (at the concentrations examined (25 and 50 μM), 0-5 hours (FIG. 15)). Also, the “subsequent cell growth of Z119 cells” value in data set [3] (25 μM, five hour exposure (FIG. 15)) is reported as “complete ablation”. Further, the “inhibition of Z119 cell growth” value in data set [3] (50 μM, 2.5 hours exposure (FIG. 15)) is “complete inhibition”. In addition, the “killing of OCl-AML-3 cells” value with OCl-AML-3 cells (25 μM) and in the data set with OCl-AML-3 cells (50 μM) was “significant killing” in each case. The Jak2 kinase activity result is “dramatically inhibited” on Jak2 (6 μM) and “further blocked” at Jak2 (concentrations higher than 6 μM). In data set [4], the “retention: presence in the blood” value is reported as “still being detectable”.

The values above are taken from patent publication US6800659B2, “Compounds for modulating cell proliferation” (HSC Research and Development Limited Partnership, priority 2000, dated 2004).
